According to paper PMC5155291 (Scientific Reports, 2016):
Where two headings read alike, the source gives them in different places.

Assays:
H547A-hDAT [1] = target: T1, H547A-hDAT (Homo sapiens, UniProt Q01959, H547A); experiment: Kinetic analysis of [3H]DA uptake in the presence or absence of PMA or BIM; assay type: cell-based; details: 1 μM PMA, 30 min preincubation, 37 °C
T1 construct: Synthetic cDNA encoding hDAT subcloned into pcDNA3.1+; expressed in transfected cells; host or cells: PC12 cells (ATCC CRL-1721), transient transfection with pcDNA3.1+ plasmid
Procedure: (§1) To determine whether H547A-induced increase in Vmax was mediated by a phosphorylation-dependent mechanism, kinetic analysis of [^3H]DA uptake was measured in the presence or absence of PKC activator PMA (Tocris, Bristol, UK) or PKC inhibitor BIM (Sigma-Aldrich, St. Louis, MO). The concentrations were chosen based on previous reports. In brief, intact PC12 cells transfected with WT or H547A-hDAT were preincubated with or without PMA or BIM (1 μM, final concentration) for 30 min at 37 °C or room temperature and then incubated with six concentrations of mixed [^3H]DA for 8 min as described above. Nonspecific uptake of each concentration of [^3H]DA (in the presence of 10 μM nomifensine) was subtracted from total uptake to calculate specific DAT-mediated uptake.

WT hDAT [2] = target: T2, WT hDAT (Homo sapiens, UniProt Q01959); experiment: as above; assay type: cell-based; details: 30 min preincubation
T2 construct: Synthetic cDNA encoding hDAT subcloned into pcDNA3.1+; expressed in transfected cells; host or cells: PC12 cells (ATCC CRL-1721), transient transfection with pcDNA3.1+ plasmid, Lipofectamine 2000
Procedure: as §1

WT hDAT [3] = target: T2, WT hDAT; experiment: Inhibition of [3H]DA uptake in intact transfected PC12 cells; assay type: cell-based
Procedure: (§2) Cells were lysed in 500 μl of 1% SDS for an hour and radioactivity was measured using a liquid scintillation counter (model Tri-Carb 2900TR; PerkinElmer Life and Analytical Sciences, Waltham, MA). Vmax and Km were determined using Prism 5.0 (GraphPad Software Inc., San Diego, CA).
(§3) Results are presented as mean ± SEM, and n represents the number of independent experiments for each experiment group. Kinetic parameters (Vmax, Km, Bmax, and Kd) were determined from saturation curves by nonlinear regression analysis using a one-site model with variable slope. […] For experiments involving comparisons between unpaired samples, unpaired Student’s t test was used to assess any difference in the kinetic parameters (Vmax, Km, Bmax, Kd or IC50) between WT and mutant; log-transformed values of IC50, Km or Kd were used for the statistical comparisons. Significant differences between samples were analyzed with separate ANOVAs followed by post-hoc tests, as indicated in the results Section of each experiment. All statistical analyses were performed using IBM SPSS Statistics version 20, and differences were considered significant at p < 0.05.

H547D-hDAT = target: T3, H547D-hDAT (Homo sapiens, UniProt Q01959, H547D); experiment: as above; assay type: cell-based
T3 construct: Synthetic cDNA encoding hDAT subcloned into pcDNA3.1+; expressed in transfected cells; host or cells: PC12 cells (ATCC CRL-1721), transient transfection with pcDNA3.1+ plasmid
Procedure: as §2, §3

H547A-hDAT [4] = target: T1, H547A-hDAT; assay type: cell-based
Procedure: as §2, §3

WT hDAT [5] = target: T2, WT hDAT; experiment: Competitive inhibition / modulation of [3H]WIN 35,428 binding in intact transfected PC12 cells
H547A-hDAT [6] = target: T1, H547A-hDAT; experiment: as above; details: Zn2+ 100 μM

T1 sequence (Q01959 whole entry H547A): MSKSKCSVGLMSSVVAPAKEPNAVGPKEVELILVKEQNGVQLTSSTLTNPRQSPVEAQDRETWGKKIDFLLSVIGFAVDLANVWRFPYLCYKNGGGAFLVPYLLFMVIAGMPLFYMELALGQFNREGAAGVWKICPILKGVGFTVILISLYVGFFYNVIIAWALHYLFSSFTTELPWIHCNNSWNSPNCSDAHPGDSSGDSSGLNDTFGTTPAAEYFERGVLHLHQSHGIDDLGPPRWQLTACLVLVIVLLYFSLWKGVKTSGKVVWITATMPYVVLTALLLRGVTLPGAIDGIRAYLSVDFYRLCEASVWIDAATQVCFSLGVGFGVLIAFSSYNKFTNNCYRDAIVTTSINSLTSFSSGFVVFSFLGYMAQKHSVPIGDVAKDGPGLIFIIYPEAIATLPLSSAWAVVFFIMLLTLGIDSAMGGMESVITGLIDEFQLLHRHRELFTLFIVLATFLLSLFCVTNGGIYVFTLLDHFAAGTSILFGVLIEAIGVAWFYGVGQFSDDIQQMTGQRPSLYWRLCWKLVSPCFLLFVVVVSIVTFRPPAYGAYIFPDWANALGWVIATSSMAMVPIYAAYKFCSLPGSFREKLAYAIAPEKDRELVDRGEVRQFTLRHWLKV
T2 sequence (Q01959 whole entry): as the sequence (Q01959 whole entry H547A) above, with A547H counted along it
T3 sequence (Q01959 whole entry H547D): as the sequence (Q01959 whole entry H547A) above, with A547D counted along it

Compound: CCCCCCCCCCCCCC(=O)O[C@@H]1[C@@H](C)[C@@]2(O)[C@@H](C=C(CO)C[C@]3(O)C(=O)C(C)=C[C@@H]23)[C@@H]2C(C)(C)[C@]12OC(C)=O [PMA, phorbol 12-myristate 13-acetate]
- decrease in the Vmax of [3H]DA uptake compared to control (H547A-hDAT [1]): 60%
- decrease in the Vmax of [3H]DA uptake compared to control (WT hDAT [2]; 1 μM PMA, 37 °C): 40%

Compound: [Cl-].[Cl-].[Zn+2] [Zn^2+, ZnCl2]
- decrease in [3H]DA uptake compared to control (WT hDAT [3]; Zn2+ 10 μM): 25%
- decrease in [3H]DA uptake compared to control (WT hDAT [3]; Zn2+ 100 μM): 37%
- decrease in [3H]DA uptake compared to control (H547D-hDAT; Zn2+ 10 μM): 53%
- decrease in [3H]DA uptake compared to control (H547D-hDAT; Zn2+ 100 μM): 60%
- decrease in [3H]DA uptake compared to control (H547A-hDAT [4]; Zn2+ 10 μM, not significant): 10%
- decrease in [3H]DA uptake compared to control (H547A-hDAT [4]; Zn2+ 100 μM): 38%
- increase in [3H]WIN 35,428 binding (WT hDAT [5]; Zn2+ 10 μM): 80%
- increase in [3H]WIN 35,428 binding (WT hDAT [5]; Zn2+ 100 μM): 82%
- increase in [3H]WIN 35,428 binding (H547A-hDAT [6]): 27%

Compound: CN(C)CCCn1cc(C2=C(c3c[nH]c4ccccc34)C(=O)NC2=O)c2ccccc21 [BIM, bisindolylmaleimide-I]
- increase in the Vmax of [3H]DA uptake relative to control (WT hDAT [2]; 1 μM BIM): 98%
